Data from patent EP0533350B1, “DNA encoding precursor interleukin 1B converting enzyme” (Merck & Co., Inc., priority 1991, dated 1993).
Like-named read-outs stand apart in the source and are kept apart here. Each block holds one compound with its values, some of them ahead of it. Where a SMILES comes first, the peptide text is derived from it. [ ]: non-standard residue; d: D form. The star is where a group is joined. Sta = CC(C)C[C@H](N)[C@@H](O)CC(=O)O; Isovaleryl = CC(C)CC(=O)*

What was measured:
ICE [1] = target: T1, ICE (Homo sapiens, UniProt P29466); test: Protease inhibitor sensitivity of ICE: inhibitor added to THP.1 S-300, gel-based pre-IL-1β cleavage assay
T1 sequence (P29466 120-297): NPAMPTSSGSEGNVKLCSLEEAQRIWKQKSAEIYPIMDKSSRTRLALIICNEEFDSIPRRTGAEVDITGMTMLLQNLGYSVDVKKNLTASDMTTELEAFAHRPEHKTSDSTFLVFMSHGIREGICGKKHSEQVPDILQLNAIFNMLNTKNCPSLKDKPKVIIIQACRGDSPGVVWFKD
T1 sequence (P29466 317-404): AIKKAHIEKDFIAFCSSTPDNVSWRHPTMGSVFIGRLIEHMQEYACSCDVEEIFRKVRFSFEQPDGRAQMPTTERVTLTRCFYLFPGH

ICE [2] = target: T1, ICE; test: Inhibition of ICE by mechanism based thiol protease inhibitors (diazomethyl ketone, peptide aldehydes); type: biochemical; design: endogenous in cells; host or cells: THP.1 cells (or human peripheral blood monocytes); cytosolic extract, ammonium sulfate, DEAE, sulfopropyl cation exchange; settings: relative to Ac-Tyr-Val-Ala-Asp-CHO
Source text: Characterization of ICE in terms of protease class was ultimately accomplished by the synthesis of two types of mechanism based thiol protease inhibitors, a diazomethyl ketone and a peptide aldehyde, both constructed from the Ac-Tyr-Val-Ala-Asp peptide. The peptidyl diazomethyl ketone (Ac-Tyr-Val-Ala-Asp-CHN2) and the peptide aldehyde (Ac-Tyr-Val-Ala-Asp-CHO) were both synthesized as described in an accompanying patent. […] However, the specificity of action on ICE has been determined by synthesis of a chemically similar peptide aldehyde, Ac-Tyr(dAla)-Val-Ala-Asp-CHO and tested for its ability to inhibit ICE in a competitive and reversible manner.

ICE [3] = target: T1, ICE
ICE [4] = target: T1, ICE; test: Discontinuous kinetic assay of ICE with P14mer as substrate; type: biochemical; design: endogenous in cells; host or cells: THP.1 cells, S-300 (300,000 x g) cytosolic supernatant
Description: Proteolytic cleavage of peptide substrates from Example 12 was carried out in the following manner. Samples of peptides were prepared in dimethyl sulfoxide at a concentration of 10 mM. The enzyme used in these studies was purified through sulfopropyl cation exhange chromatography. Reaction mixtures contained approximately 0.2 mg/ml enzyme, 0.2 mM peptide, 10% sucrose, 0.1% CHAPS (3-[(3-cholamidopropyl)dimethyl-ammonio]-1-propansulfon at), 10 mM HEPES (N-2-hydroxyethylpiperazine-N'-2-ethanesulfonic Acid), pH 7.5 in a 50 ul reaction volume. After incubation at 25 degrees for variable lengths of time, reactions were quenched with the addition of 450 ul 0.1% trifluoroacetic acid. The samples were analyzed by reverse-phase high performance liquid chromatography using a Vydac C-18 column (4.6 mm x 25 cm, 5 um particle size, 300 pore size) equilibrated with 5% acetonitrile, 0.1% trifluoroacetic acid at a flow rate of 1 ml/min. Peptides were eluted using a 10 min linear gradient of 5 to 30% acetonitrile and quantitated by monitoring the column effluent at 280 nm. Under these conditions substrate and tyrosine-containing product were separated with baseline resolution in every case. The identity of cleavage products was confirmed using peptide standards.
The data in Table 3 was generated using partially purified enzyme or THP-1 […] and the gel-based cleavage assay as an indicator of ICE activity. This has been verified and extended using the P14mer assay as well as Ac-Tyr-Val-Ala-Asp-AMC as substrates. The only exception to the results of this table came when 1,10 phenanthroline (OP) was tested as an inhibitor. […] The rate constant (8 x 10-2 s-1 M-1) for inactivation is slow and it is not possible to reconstitute ICE activity by addition of ZnC12 following treatment with the chelator. […] The data is not consistent with the hypothesis that ICE is a metalloprotease.

ICE [5] = target: T1, ICE; test: Mixed disulfide treatment of ICE, continuous fluorometric assay, DTT reversal and dilution stability; type: biochemical; design: endogenous in cells; host or cells: THP.1 cells, S-300 (300,000 x g) cytosolic supernatant
ICE [6] = target: T1, ICE; test: Size exclusion chromatography (TSK G2000) of GSSG or cystamine treated ICE; design: endogenous in cells; host or cells: THP.1 cells, S-300 (300,000 x g) cytosolic supernatant; settings: concentrated ICE pretreated 24 hrs, TSK G2000 column
recombinant ICE = target: T2, recombinant ICE (Homo sapiens, UniProt P29466); test: IL-1β precursor cleavage by lysates of COS-7 cells transfected with full-length ICE cDNA; type: biochemical; settings: lysates of COS-7 cells transfected with ICE cDNA
T2 construct: transfection of full-length ICE cDNA, including the complete ORF of the 45 kDa ICE preprotein; expressed in transfected cells; host or cells: COS-7 cells, vector pSZ-9016 co-transfected with pX8TAT; detergent lysate
T2 sequence (P29466 120-297 limits assumed): T1 sequence (P29466 120-297)
T2 sequence (P29466 317-404 limits assumed): T1 sequence (P29466 317-404)
Description: The expression of recombinant ICE was achieved by transfection of full-length ICE cDNA, including the complete ORF of the 45 kDa ICE preprotein (Fig. 23), into a mammalian host cell. The 1.6 kb EcoRI fragment containing the full length ICE cDNA was cloned into vector pSZ-9016. 6µg of this DNA along with 0.6 ug of pX8TAT, a mammalian expression vector which places the trans-activating protein (TAT) of HIV under the control of the SV40 early promoter, was transfected into COS-7 cells by the cationic-liposome method. Cells were harvested 48 hours later and lysed in detergent buffer (25 mM HEPES pH 7, 1% Triton-X-100, 1mM EDTA, 2mM DTT, 10 ug/ml aprotinin, 10 ug/ml leupeptin, 10 ug/ml pepstatin, and 2 mM PMSF). Cell lysates were incubated with radiolabeled IL-1β precursor to measure ICE activity. Cleavage products of IL-1β were analyzed by immunoprecipitation with IL-1B antibody and fractionation on SDS polyacrylamide gels. The IL-1β precursor was cleaved to the mature, 17 kDa form by cells transfected with ICE cDNA, but not by cells transfected with the expression plasmid alone. […] The substrate specificity of the expressed ICE activity was verified by incubating lysates with an IL-1β precursor cleavage site mutant (Ala^116) which cannot be cleaved by ICE. […]

Compound: CCN1C(=O)C=CC1=O [N-ethyl maleimide]
- Inhibition (ICE [1]): +

Compound: Cc1ccc(S(=O)(=O)N[C@@H](CCCCN)C(=O)CCl)cc1 [TLCK]
- Inhibition (ICE [1]): +

- less potent at inhibiting ICE activity (ICE [2]): 300 fold
Compound: Ac-Tyr(dAla)-Val-Ala-Asp-CHO

Compound: Cc1ccc(S(=O)(=O)N[C@@H](Cc2ccccc2)C(=O)CCl)cc1 [TPCK]
- Inhibition (ICE [1]): +

- Inhibition (ICE [1]; Conc. 10 mM): -
Compound: O=C(O)CN(CCOCCOCCN(CC(=O)O)CC(=O)O)CC(=O)O [EGTA]

- Inhibition (ICE [1]; Conc. 1 mM): -
Compound: CC(C)CC(NC(=O)C1OC1C(=O)O)C(=O)NCCCCNC(=N)N (stereo not shown) [Compound E-64]

Compound: O=C(O)CI [Iodoacetic acid]
- rate constant for inactivation of ICE (ICE [3]): 24 M⁻¹ s⁻¹
- half-time of inhibition (ICE [3]; 100 mM iodoacetate, substrate at 1 * Km): 9.13 min
- ICE inactivated (ICE [3]; 100 mM radiolabeled iodoacetate, 2.8 mM Ac-Tyr-Val-Ala-Asp-AMC (200 x Km) included): < 2%
- Inhibition (ICE [1]): +

- Inhibition (ICE [1]; Conc. 50 mM): -
Compound: O=C(O)CN(CCN(CC(=O)O)CC(=O)O)CC(=O)O [EDTA]

Compound: CC(=O)N[C@@H](CC(C)C)C(=O)N[C@@H](CC(C)C)C(=O)N[C@H](C=O)CCCNC(=N)N [Leupeptin]
- Inhibition (ICE [1]): -

- Inhibition (ICE [1]; Conc. 100 µM): -
Compound: CC(C)CC(=O)N[C@H](C(=O)N[C@H](C(=O)N[C@@H](CC(C)C)[C@@H](O)CC(=O)N[C@@H](C)C(=O)N[C@@H](CC(C)C)[C@@H](O)CC(=O)O)C(C)C)C(C)C [Chloromethyl ketonePepstatin, Pepstatin] (Isovaleryl-VV[Sta]A[Sta]-OH)

Compound: NC(=O)CI [Iodoacetamide]
- Inhibition (ICE [1]): +

Compound: PMSF
- Inhibition (ICE [1]): -

- Inhibition (ICE [1]; Conc. 1 mM): +
Compound: O=C1C=CC(=O)N1c1ccccc1 [N-phenyl maleimide]

- inhibition of ICE activity in the gel based cleavage assay (ICE [1]): did not inhibit
- Inhibition (ICE [1]; Conc. 10 mM): -
- increase in the rate at which ICE is inhibited (ICE [4]; addition of 10 mM CuSO4 to assay containing 1.0 mM OP): 17 fold
- inhibition of ICE on co-treatment with two metal chelators (ICE [4]; co-treatment with EDTA and OP): did not result in an inhibition of ICE
Compound: c1cnc2c(c1)ccc1cccnc12 [1,10-phenanthroline]
- inhibition of ICE activity (ICE [4]; P14mer as substrate): can inhibit ICE activity in a time and concentration dependant manner

- Inhibition (ICE [1]; Conc. 1 mM): +
- half-time of time dependant decrease in activity (ICE [5]; 5 mM cystamine): 19 min
- enzyme activity recovered (ICE [5]; addition of DTT after the inactivation plateau, 5 mM cystamine): 23%
- recovery of activity (ICE [5]; concentrated ICE (3 units/ml), 5 mM cystamine, 3 day equilibration at 4 °C, then DTT): Complete recovery of activity
- stabilization of ICE activity (ICE [5]; upon dilution of treated enzyme): did not appear to stabilize ICE activity
- apparent Mr of treated enzyme (ICE [6]): 22,000
Compound: NCCSSCCN [Cystamine]

- inhibition of IL-1β precursor cleavage to the mature 17 kDa form (recombinant ICE): completely inhibited
Compound: CC(=O)N[C@@H](Cc1ccc(O)cc1)C(=O)N[C@H](C(=O)N[C@@H](C)C(=O)N[C@H](C=O)CC(=O)O)C(C)C [L-709,049]
